Literature values in EP2919756B1, “SOLID LIPID NANOPARTICLES OF ROXITHROMYCIN FOR HAIR LOSS OR ACNE” (Gdanski Uniwersytet Medyczny, priority 2012, dated 2014).

Assays:
[1] = external application of 0.5% solution for 24 weeks
[2] = tested on: human hair follicles; conditions: human hair follicles in vitro

In the case of CC[C@H]1OC(=O)[C@H](C)[C@@H](O[C@H]2C[C@@](C)(OC)[C@@H](O)[C@H](C)O2)[C@H](C)[C@@H](O[C@@H]2O[C@H](C)C[C@H](N(C)C)[C@H]2O)[C@](C)(O)C[C@@H](C)/C(=N\OCOCCOC)[C@H](C)[C@@H](O)[C@]1(C)O [roxithromycin, Roxithromycin], the “local or systemic side effects or undesirable action” value [1] is listed as “no local or systemic side effects or undesirable action was recorded”, the “thickening of the hair” value [1] is listed as “Substantial thickening of the hair” and the restored hair growth ([1]; patients with androgenic hair loss) is listed as “more than half of the patient population”. The hair elongation [2] was “caused hair elongation” and the “follicle's passage to the catagen phase” value ([2]; through inhibition of keratinocyte apoptosis) was “inhibit the follicle's passage to the catagen phase”.
